Laboratory results as given in PMC11952966 (2025).

Assays:
Assay in all cases: ITC
[1] = test system: FXd (DNA, aptamer) GGGACGACGGTGTGGGGGTAGGGGGTGTGGGAAGCGGCGTCGTCCC; settings: 23 °C; selection buffer (Supplementary Table S1); one-site model
[2] = test system: NC423 (DNA, aptamer) CTTACGACTTGTTCTGAGGGTCAACGGTGGTGTAGTTAGTCGTAAG
[3] = test system: NC1947 (DNA, aptamer) CTTACGACACAGGGCGTGGAGTGGCTGGGCTTCAAGGGGTCGTAAG
[4] = test system: NCB (DNA, aptamer) CTTACGACACAGGGCGTGGAGGAGCTGGGCTATTAGGGGTCGTAAG
[5] = test system: OM7 (DNA, aptamer) GGGACGACATCGTAGGGGCACACGCTTAACGGGCTGATGTCGTCCC

In the case of `Cc1c(Nc2ncccc2C(=O)O)cccc1C(F)(F)F`, the KD [1] is reported as 27.4 µM.
Work on `COC(=O)[C@H]1[C@@H](OC(=O)c2ccccc2)C[C@@H]2CC[C@H]1N2C` yielded a KD [2] of 0.022 µM, a KD [3] of 0.123 µM and a KD [4] of 1.0 µM.
In the case of `COc1ccc2c3c1O[C@H]1C(=O)CC[C@@]4(O)[C@@H](C2)N(C)CC[C@]314`, the KD [5] is reported as 1.4 µM.
